Tests used:
[1] = system: untransformed fibroblasts (HSF1); test: Clonogenic assay comparing the radioprotective effect of phosphorylated amino acids, 4 Gy; format: cell-based, human; conditions: 10 μM for 16 hours, then 4 Gy ionizing irradiation, FIG. 3
Method: The cells, which are cultured as described in Example 1 and which are either incubated with the cell-damaging factors as described in Example 2 or remain untreated as controls, are freed from medium, washed and detached from the substrate using 0.05% trypsin and 0.1% EDTA. For the purpose of analyzing colony formation, the detached cells are plated at a constant cell density of 1500 cells per 78 cm^2 dish. […]

[2] = system: normal skin fibroblasts (HSF6); test: Clonogenic assay after P-Tyr pretreatment alone, no cell-damaging treatment; format: cell-based, human; conditions: P-Tyr alone for 16 hours at up to 2000 μM, FIG. 2A
Method: Human fibroblasts (cell strains HSF1 and HSF6, which are derived from human skin, passages 9 to 15; CCD32, which is derived from embryonic lung tissue, passages 9 to 11) are particularly well suited for investigating the cytoprotective properties of the phosphotyrosine.
The cells are cultured in Dulbecco's modified Eagle's medium (DMEM) supplemented with 10% fetal calf serum (FCS) (GIBCO/BRL, Eggenstein, Germany, article No. 40G7285K) (=normal medium), under standard conditions. […]
(§1) In this connection, a colony is a mass of cells which develops, during the 14 days of culture, from a single cell as a result of consecutive cell divisions. […] If many cells die during the treatment with the cell-damaging factors, only a few colonies are then formed after 14 days; if many cells survive, many colonies can then be counted after the 14 days of culture. […]
(§2) After the 14 days of culture, the cells are fixed, stained and counted as described (Dittmann et al., 1995, loc. cit.). When determining clonogenic survival, the colonies containing more than 50 cells are counted per plate. […]
(§3) The result of such a clonogenic assay is expressed as “relative cytoprotection” or in “% number of the clones”, with the number of the colonies formed in the different assays being related to each other. […]

[3] = system: transformed fibroblasts (HH4dd); test: Clonogenic assay after P-Tyr pretreatment and UVB irradiation; format: cell-based, human; conditions: 10 μM P-Tyr for 16 hours, then 200 J of UVB, FIG. 5B
Method: (§4) The cells are irradiated with UV light (312 nm) at a dose rate of 450 J/m^2 per minute using a UVB lamp (Bioblock Scientific, Illkirch Cedex, France).
(§5) The cells, which are cultured as described in Example 1 and which are either incubated with the cell-damaging factors as described in Example 2 or remain untreated as controls, are freed from medium, washed and detached from the substrate using 0.05% trypsin and 0.1% EDTA. For the purpose of analyzing colony formation, the detached cells are plated at a constant cell density of 1500 cells per 78 cm^2 dish. The plated cells were then incubated for 14 days in normal medium additionally containing 20% FCS. This period of time enabled colony formation to take place.
as §1, with “divisions. This colony is also termed a clone.” for “divisions.”
as §2

[4] = system: normal, untransformed fibroblasts (HSF1); test: as above; format: cell-based, human; conditions: 10 μM P-Tyr for 16 hours, then 200 J of UVB, assayed 7 hours later, FIG. 5A
Method: as §4, §5
as §1, with “divisions. This colony is also termed a clone.” for “divisions.”
as §2

[5] = system: HTB-35 squamous carcinoma cell line; test: Clonogenic assay after P-Tyr pretreatment and ionizing irradiation at 0 to 6 Gy; format: cell-based, human; conditions: 10 μM P-Tyr for 16 hours, FIG. 4
Source text: (§6) In addition, it is possible to use the human squamous carcinoma cell lines HTB-35 (ATCC, which is derived from a cervical carcinoma, passage unknown, used in passage 10 after receipt) (Srivastava et al., “The status of the p53 gene in human papilloma virus positive or negative cervical carcinoma cell lines”, Carcinogenesis 13, pages 1273-1275, 1992) and HTB-43 (ATCC, is derived from a hypopharyngeal tumor, passage 124). Both carcinoma cell lines are characterized by a point mutation in the p53 gene (Kim et al., “State of p53, Rb and DCC tumor suppressor genes in human oral cancer cell lines”, Anticancer Research, pages 1405-1413, 1993). […]
as §1, §2

[6] = system: HTB-43 squamous carcinoma cell line; test: as above; format: cell-based, human; conditions: 10 μM P-Tyr for 16 hours, FIG. 4
Source text: as §6, §1, §2

[7] = system: transformed HH4dd fibroblasts; test: Clonogenic assay after P-Tyr pretreatment and ionizing irradiation at 4 Gy, different P-Tyr doses; format: cell-based, human; conditions: FIG. 2B
Method: (§7) For the radioactive irradiation, the cells are irradiated with 4 MV photons using a “Linac” (Mevatron^60/Siemens, Erlangen, Germany) using a dose rate of 2 Gy/min at room temperature, as described (Dittmann et al. “Bowman-Birk Proteinase inhibitor modulates radiosensitivity and radiation-induced differentiation of human fibroblasts in culture”, Radiother. Oncol. 34, pages 137-143, 1995).
as §5, with “The plated cells were then incubated for 14 days in normal medium additionally containing 20% FCS. This period of time enabled colony formation to take place.” left out
as §1, §2

[8] = system: human breast and kidney carcinoma cells; conditions: Mishra and Hamburger 1993; P-Tyr dose-dependent; run at 1.67 mM, some at 16.7 mM; cited from earlier work
[9] = system: transformed fibroblasts (HH4dd); test: Clonogenic assay after P-Tyr pretreatment and cisplatin treatment; format: cell-based, human; conditions: 10 μM P-Tyr for 16 hours, then 1 μg of cisplatin/ml for one hour, FIG. 6B
Method: (§8) The incubation with cisplatin take place at a concentration of 1 μg of cisplatin/ml (cis-diammine platinum(II-dichloride); Sigma, Munich, Germany).
as §5
as §1, with “divisions. This colony is also termed a clone.” for “divisions.”
as §2

[10] = system: normal, untransformed fibroblasts (HSF1); test: as above; format: cell-based, human; conditions: 10 μM P-Tyr for 16 hours, then 1 μg of cisplatin/ml for one hour, versus cells not pretreated, FIG. 6A
Method: as §8, §5
as §1, with “divisions. This colony is also termed a clone.” for “divisions.”
as §2

[11] = system: liver carcinoma cell line and arc-transformed NIH 3T3 cells; conditions: Mishra and Hamburger, Cancer Letters 1996; cited from earlier work
[12] = system: normal skin fibroblasts (HSF6); test: Clonogenic assay after P-Tyr pretreatment and ionizing irradiation at 4 Gy, different P-Tyr doses; format: cell-based, human; conditions: FIG. 2B
Method: as §7
as §5, with “The plated cells were then incubated for 14 days in normal medium additionally containing 20% FCS. This period of time enabled colony formation to take place.” left out
as §1, §2

[13] = system: transformed fibroblast cell line HH4dd; test: Clonogenic assay after P-Tyr pretreatment alone, no cell-damaging treatment; format: cell-based, human; conditions: FIG. 2A
Source text: Transformed human fibroblasts, e.g., the cell line HH4dd (is derived from human skin, passages 65 to 70), are also suitable for the investigation. This cell line is derived from the normal cell strain HH4 and is likewise characterized by a p53 mutation (Dittmann et al., “The radioprotective effect of BBI is associated with the activation of DNA-repair relevant genes”, Int. J. Radiat. Biol. 74, pages 225-230, 1998). HH4dd grows in soft agar, is characterized by its aneuploidy and induces tumors in nude mice. […]
as §1, §2, §3

[14] = system: normal skin fibroblasts (HSF6); test: Clonogenic assay after P-Tyr pretreatment and ionizing irradiation at 0 to 6 Gy; format: cell-based, human; conditions: 10 μM P-Tyr for 16 hours, up to 6 Gy, FIG. 4
Method: as §7
as §5, with “The plated cells were then incubated for 14 days in normal medium additionally containing 20% FCS. This period of time enabled colony formation to take place.” left out
as §1, §2

[15] = system: normal lung fibroblasts (CCD32); test: as above; format: cell-based, human; conditions: 10 μM P-Tyr for 16 hours, up to 6 Gy, FIG. 4
Method: as §7
as §5, with “The plated cells were then incubated for 14 days in normal medium additionally containing 20% FCS. This period of time enabled colony formation to take place.” left out
as §1, §2

[16] = Inventors' investigations of the concentration range of the cytoprotective effect; format: cell-based; conditions: investigations carried out by the inventors
Method: In the culture medium according to the invention it is preferred to use phosphotyrosine in a concentration range of from 1 to 100 μM. Thus, investigations carried out by the inventors have shown that the cytoprotective effect of the phosphotyrosine is particularly high in this range.

Structure (SMILES)	radioprotection (clonogenic assay) [1]	effect on clonogenic survival [2]	effect on clonogenic survival after UVB irradiation [3]	increase in clonogenic survival after UVB irradiation [4] [%]	clonogenic survival after ionizing irradiation [5]	clonogenic survival after ionizing irradiation [6]	clonogenic survival after ionizing irradiation ([7]; transformed HH4dd fibroblasts, same treatment)	toxicity of the radiation ([7]; transformed fibroblasts, 2000 pM P-Tyr)	growth of human breast and kidney carcinoma cells [8]	clonogenic survival after cisplatin treatment [9]	increase in clonogenic survival after cisplatin incubation [10] [%]	cell growth of liver carcinoma cell line and arc-transformed NIH 3T3 cells [11]	P-Tyr concentration at which maximum survival was achieved ([12]; ionizing irradiation at 4 Gy) [µM]	clonogenic survival after ionizing irradiation ([12]; phosphotyrosine plus ionizing irradiation at 4 Gy)	effect on clonogenic survival [13]	clonogenic survival after ionizing irradiation [14]	clonogenic survival after ionizing irradiation [15]	concentration range in which the cytoprotective effect is particularly high [16] [µM]
C[C@@H](OP(=O)(O)O)[C@H](N)C(=O)O [P-Thr, phosphothreonine, reference compound]	did not result in any radioprotection																	
N[C@@H](Cc1ccc(OP(=O)(O)O)cc1)C(=O)O [P-Tyr, O-phospho-L-tyrosine (L-3-[4-hydroxy-phenyl]alanine-4′-phosphate)]	significant radioprotection	does not have any effect on the clonogenic survival	no effect on the clonogenic survival	37	significant reduction in clonogenic survival	significant reduction in clonogenic survival	no increase in clonogenic survival was observed	significant increase in the toxicity of the radiation	inhibits the growth	did not lead to any increase in clonogenic survival	38.7	inhibit cell growth	10	clear increase in clonogenic survival	no effect was seen on clonogenic survival	significant increase in clonogenic survival	significant increase in clonogenic survival	1 to 100
